SMILES strings stand for the structures. Several values for one entry are separate records, joined by “and”; a condition that tells them apart may be missing. Identical values can stand only once. Like-named read-outs stand apart in the source and are kept apart here.

These results are taken from patent publication US20070006551A1, “Method and apparatus for sterilizing and filling containers” (priority 2005, published 2007).

Assay [1] concerns B. subtilis var. globigii (ATCC. 9372). Here is the method: (§1) The experiments were designed to identify the conditions optimal for polymer sterilization and also explore the boundary areas to determine the conditions limiting the efficacy of the treatment. Each polymer strip was inoculated by drop spotting approximately 100 micro-liters and coating the surface by swabbing the surface of the polyethylene strip. The culture was allowed to dry before sterilization. Each strip of polyethylene was treated by vigorously agitating the strip in the appropriate treatment solutions. Each treated polymer strip was then treated with catalase to inactivate residual peroxide, swabbed and plated using TGE incubated at 35° C. for two days.
Five replicate polymer strips were used for each of the two methods of the present invention. A log measurement value is provided below each of the non-log values. The first method uses hydrogen peroxide first and then an alkaline solution of sodium hydroxide. The second method uses an alkaline solution of sodium hydroxide first and then hydrogen peroxide. The sterilization was conducted at 50° C.
In Table Three, a solution of 0.1 Normal potassium hydroxide (KOH) was utilized with a solution of 3% hydrogen peroxide at a temperature of 35° C. for 30 seconds.

Assay [2] has the same test system. The settings on record: 50° C.; for bacteriocidal effect (in words): Table Two conditions; for CFU/Swab / logCFU/Swab / Average (logCFU/Swab) / Log reduction: Table Two; for CFU/Swab / logCFU/Swab: contact times as in the label, one value per replicate; for Average (logCFU/Swab): mean of replicates; for Log reduction: versus inoculated untreated control (6.66). How it is done:
as §1
A log measurement value is provided below each of the non-log values. The sterilization was conducted at 50° C.

[3] abbreviates: Table Three, 35° C. for 30 seconds, one value per replicate.

On to `[Na+].[OH-]` [1M NaOH Control, sodium hydroxide], for which the CFU/Swab in assay [1] (Table One, 50° C., survivors after treatment, inoculum 10^6, one value per replicate strip) was 5,700 CFU/Swab and 210 CFU/Swab. Further, in assay [1] (Table One, 50° C., survivors after treatment, one value per replicate strip), the logCFU/Swab was 3.76 logCFU/Swab and 2.32 logCFU/Swab.
Regarding `[Na+].[OH-]` [50° C. 10 s 0.25M NaOH Control, sodium hydroxide], in assay [2], the “bacteriocidal effect (in words)” value is listed as “no bacteriocidal effect”; the CFU/Swab is 3,800,000 CFU/Swab and 7,900,000 CFU/Swab and 5,400,000 CFU/Swab and 6,300,000 CFU/Swab; the logCFU/Swab is 6.80 logCFU/Swab and 6.58 logCFU/Swab and 6.90 logCFU/Swab and 6.73 logCFU/Swab; the “Average (logCFU/Swab)” value turned out to be 6.75.
As to `OO` [50° C. 30 s 3.5% H2O2 10 s catalase, hydrogen peroxide], in assay [2], the “bacteriocidal effect (in words)” value was “no effect”; the CFU/Swab is 4,200,000 CFU/Swab and 4,000,000 CFU/Swab and 3,000,000 CFU/Swab and 5,000,000 CFU/Swab and 1,600,000 CFU/Swab; the logCFU/Swab was 6.20 logCFU/Swab and 6.62 logCFU/Swab and 6.60 logCFU/Swab and 6.48 logCFU/Swab and 6.70 logCFU/Swab; the “Average (logCFU/Swab)” value came to 6.52. Moreover, in assay [2], the Log reduction is given as 0.14.
Consider `OO` [50° C. 30 s 35% H2O2 10 s catalase, hydrogen peroxide], for which the rate of inactivation in assay [2] (thirty second treatment) is on record as 1.45 log per 10 seconds of treatment. Also, in assay [2], the CFU/Swab is 570 CFU/Swab and 20 CFU/Swab and 270 CFU/Swab and 2700 CFU/Swab and 40 CFU/Swab; the logCFU/Swab was 1.60 logCFU/Swab and 2.76 logCFU/Swab and 1.30 logCFU/Swab and 2.43 logCFU/Swab and 3.43 logCFU/Swab; the “Average (logCFU/Swab)” value is 2.30; the Log reduction stood at 4.35. For the same compound, the Log reduction in assay [2] (listed as thirty second hydrogen peroxide treatment (column 4)) is 4.35.
Turning to `OO` [H2O2 Control, hydrogen peroxide], in assay [1] (setting [3]), the CFU/Swab is listed as 5,200,000 CFU/Swab and the logCFU/Swab is 6.72 logCFU/Swab.
